The results in this text go back to US6538022B1, “Compounds for deactivating phospholamban function on Ca-ATPase (phopholamban inhibitors)” (Orion Corporation, priority 1997, dated 2003).

A word on the EC50: it is the concentration that produces a half-maximal response. Read a high EC50 as a less potent agent.

Bridges are numbered along the chain shown (N, C = ends). Where no end group is shown, it is not given here.

For one assay, the system named is guinea-pig heart. Kind of assay: Left ventricular systolic pressure in isolated Langendorff-perfused heart. As to conditions: Cavia porcellus; for Emax at 30 µM / Emax at 10 µM: read-out: maximum effect (% change from baseline) on left ventricular systolic pressure; for EC50: concentration range 0.3-30 μM. The source says:
Experiment 2. The effects on the left ventricular pressure derivatives
Guinea-pigs of either sex weighing 300-400 g were used in the study. After the guinea-pig was sacrificed by a blow on the skull and decapitated the heart was rapidly excised. The heart was then rinsed in cold oxygenated perfusion buffer. A cannula was inserted into the aorta and secured with a ligature. Retrograde perfusion began as soon as the heart was placed in a thermostatically controlled moist chamber of the Langendorff apparatus. Modified Tyrode solution (37° C.), equilibrated in a thermostatically controlled bulb oxygenator with carbogen (95% O2 and 5% CO2) was used as a perfusion buffer. The composition of the Tyrode solution was (in mM): NaCl 135; MgCl2×6H2O 1; KCl 5; CaCl2×2H2O 2; NaHCO3 15; Na2HPO4×2H2O 1; glucose 10; pH 7.3-7.4. The experiments were carried out under constant pressure condition (50 mmHg). After a short prestabilization (10 min) a latex balloon (size 4) was carefully placed into the left ventricle through the left pulmonary vein and the left atrium. The latex balloon was attached to a stainless-steel cannula coupled with a pressure transducer. The latex balloon, the cannula and the chamber of the pressure transducer were filled with ethylene glycol/water (1:1) mixture avoiding any air-bubble. The isovolumetric left ventricular pressure was recorded through the pressure transducer. At the beginning of the experiment, the volume of the balloon was adjusted to obtain a diastolic pressure of approximately 5 mmHg. Before starting the experiment, the heart was allowed to stabilise further for 30-50 min with vehicle (0.1% DMSO) in the perfusion buffer.
After 15 min baseline recording various concentrations of the test compound were added to the perfusion buffer at 15 min intervals. The concentration range of 0.3-30 μM was tested. The vehicle concentration (0.1% DMSO) was kept constant throughout the experiment.

In another assay the test system is SR Ca^2+-ATPase. Kind of assay: Ca2+ uptake into SR vesicles prepared from fast skeletal muscle (psoas m.), which lack phospholamban (fluo-3). Format: biochemical, guinea pig. As to conditions: 0.04 μM free calcium. From the text:
(§1) Experiment 1. Effect on calcium uptake into the SR vesicles prepared from cardiac and fast skeletal muscle
(§2) Since phospholamban represses both the rates of relaxation and contraction in the mammalian heart through its inhibitory effects on the cardiac SR Ca^2+-ATPase, a compound relieving these effects is potentially useful in the treatment of heart failure.
(§3) Guinea pigs (10-12) were decapited. Their hearts or the psoas muscles were excised, washed in ice-cold 0.9% NaCl and cut into pieces in a buffer containing 20 mM Tris-maleate, 0.3 M sucrose, pH 7.0. Thereafter tissue pieces were homogenized with Polytron and further with Potter (10 strokes). The homogenate was centrifugated at 1000 g for 15 min at 4° C. The supernatant was collected and the pellet was resuspended into 5 ml of the buffer (20 mM Tris-maleate, 0.3 M sucrose, pH 7.0) and recentrifugated at 1000 g for 10 min at 4° C. The obtained supernatant was combined with the earlier collected supernatant and centrifugated once again at 10000 g for 20 min at 4° C. The final supernatant was filtered into a bottle equipped with a magnetic stirrer. KCl was added to the filtered supernatant to achieve the final concentration of 0.6 M (at 4° C.). The obtained solution was centrifugated at 100 000 g for 60 min at 4° C. The pellet was suspended in 5 ml of the buffer containing 20 mM Tris-maleate, 0.3 M sucrose, pH 7.0 and centrifugated at 100 000 g for 60 min at 4° C. The obtained pellet was suspended in 5 ml of buffer containing 20 mM Tris-maleate, 0.3 M sucrose, 0.1 M KCl, pH 7.0 and stored at −80° C. until use. The protein concentration was also measured in order to standardise the separately prepared vesicle preparations.
(§4) In the calcium uptake assay, the fluorescent indicator, fluo-3 was used to detect the decrease of the extravesicular Ca^2+-concentration, when the SR Ca^2+ATPase was transferring Ca^2+ from the extravesicular space into the SR-vesicles.
(§5) The SR-vesicles obtained above (50 μg protein/ml) were pre-incubated with or without the test compound at 37° C. for 5 min in the assay buffer containing 40 mM imidazole, 95 mM KCl, 5 mM NaN3, 5 mM MgCl2, 0.5 mM EGTA, 5 mM potassium oxalate, 2 μM ruthenium red, 5 μM fluo-3, pH 7.0. The free calcium was adjusted to 0.1 μM or to 0.04 μM by CaCl2. The reaction was initiated by adding ATP (5 mM). The final reaction volume was 1.5 ml. The fluorescence of reaction mixture was measured for 3 min by using the excitation and emission wavelengths of 510 nm and 530 nm, respectively.

The next assay relates to phospholamban. Description: Ca2+ uptake into SR vesicles prepared from cardiac tissue (fluo-3). Format: biochemical, guinea pig. As to conditions: 0.1 μM free calcium.
Excerpt: as §1, §2, §3, §4, §5

The target of the next assay is T1, PLB (Homo sapiens, UniProt P26678).
T1 sequence (P26678 1-52): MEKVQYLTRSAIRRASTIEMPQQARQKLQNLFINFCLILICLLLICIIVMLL
Kind of assay: Peptide screen for binding to PLB. The source says:
In order to find a lead molecule which would interact with PLB a series of peptides were screened. […] It was concluded that the cyclic peptide of formula (pI) binds to unphosphorylated PLB and prevents the inhibition exerted by PLB on SERCA—2 thus acting as a PLB deactivator. The cyclic peptide (pI) has the structure: [drawing 1]

For the compound `Cc1c(Cc2ccccc2)c(=O)oc2cc(OCc3nn[nH]n3)cc(OCc3nn[nH]n3)c12` [Example 1c, 3-Benzyl-5,7-bis[(1H-tetrazol-5-yl)methoxy]-4-methyl-2H-1-benzopyran-2-one], in the assay with guinea-pig heart, the Emax at 30 µM was determined as 52% and it took 9 µM to reach a half-maximal effect (EC50).
Turning to `O=c1oc2cc(OCc3nn[nH]n3)cc(OCc3nn[nH]n3)c2c2c1C(c1ccccc1)CCC2` (centres unmarked) [Example 2c, 7,8,9,10-Tetrahydro-1,3-bis[(1H-tetrazol-5-yl)methoxy]-7-phenyl-6H-dibenzo[b,d]pyran-6-one], the “The stimulation (%) of Ca^2+ uptake, B (fast skeletal muscle vesicles)” value (“The stimulation (%) of Ca^2+ uptake, B” for short) in the assay with SR Ca^2+-ATPase (100 μM compound) is reported as −1%. In addition, the “The stimulation (%) of Ca^2+ uptake, A (ventricular myocardium vesicles)” value in the assay with phospholamban (100 μM compound) is recorded as 26%.
With `Cc1c(Cc2ccccc2)c(=O)oc2cc(OCc3noc(=O)[nH]3)cc(OCc3noc(=O)[nH]3)c12` [Example 3c, 3-Benzyl-5,7-bis[(2,5-dihydro-5-oxo-4H-1,2,4-oxadiazol-3-yl)-methoxy]-4-methyl-2H-1-benzopyran-2-one], in the assay with guinea-pig heart, the Emax at 10 µM was 63% and the EC50 is 4 µM. The “The stimulation (%) of Ca^2+ uptake, B” value with SR Ca^2+-ATPase (20 μM compound) is listed as 0%. Further, in the assay on phospholamban (20 μM compound), the “The stimulation (%) of Ca^2+ uptake, A (ventricular myocardium vesicles)” value was found to be 51%.
`O=c1cc(-c2ccccc2)c2c(OCc3nn[nH]n3)cc(OCc3nn[nH]n3)cc2o1` [Example 5c, 5,7-Bis[(1H-tetrazol-5-yl)methoxy]-4-phenyl-2H-1-benzopyran-2-one]: in the assay on guinea-pig heart, the Emax at 30 µM is 14%.
On to `O=c1oc2cc(OCc3nn[nH]n3)cc(OCc3nn[nH]n3)c2c2c1CC(c1ccccc1)CC2` (centres unmarked) [Example 6c, 7,8,9,10-Tetrahydro-1,3-bis[(1H-tetrazol-5-yl)methoxy]-8-phenyl-6H-dibenzo[b,d]pyran-6-one], for which, in the assay on guinea-pig heart, the Emax at 10 µM was found to be 25% and the EC50 was determined as 0.5 µM.
As to `Cc1c(CCc2ccccc2)c(=O)oc2cc(OCc3nn[nH]n3)cc(OCc3nn[nH]n3)c12` [Example 7c, 5,7-Bis[(1H-tetrazol-5-yl)methoxy]-4-methyl-3-(2-phenylethyl)-2H-1benzopyran-2-one], in the assay with guinea-pig heart, the Emax at 10 µM was found to be 29% and the response was half-maximal at 2.5 µM (EC50). In addition, the “The stimulation (%) of Ca^2+ uptake, B” value in the assay with SR Ca^2+-ATPase (100 μM compound) is given as −17%. The “The stimulation (%) of Ca^2+ uptake, A (ventricular myocardium vesicles)” value in the assay with phospholamban (100 μM compound) is listed as 5%.
For `Cc1c(Cc2ccccc2)c(=O)n(Cc2ccccc2)c2cc(OCc3nnn[nH]3)cc(OCc3nn[nH]n3)c12` [Example 8g, 5,7-Bis[(1H-tetrazol-5-yl)methoxy]-1,3-dibenzyl-4-methyl-2(1H)-quinolinone], in the assay on guinea-pig heart, the Emax at 10 µM is 64% and the concentration giving a half-maximal response (EC50) was 2 µM. The “The stimulation (%) of Ca^2+ uptake, B” value in the assay with SR Ca^2+-ATPase (10 μM compound) came to 0%. The “The stimulation (%) of Ca^2+ uptake, A (ventricular myocardium vesicles)” value with phospholamban (10 μM compound) is 18%.
Turning to `Cc1c(Cc2ccccc2)c(=O)n(C)c2cc(OCc3nnn[nH]3)cc(OCc3nn[nH]n3)c12` [Example 9d, 5,7-Bis[(1H-tetrazol-5-yl)methoxy]-3-benzyl-1,4-dimethyl-2(1H)-quinolinone], in the assay with guinea-pig heart, the Emax at 30 µM is 50% and the EC50 was 5 µM.
Regarding `Cc1c(Cc2ccccc2)c(=O)oc2cc(OC(C)c3nn[nH]n3)cc(OC(C)c3nn[nH]n3)c12` (centres unmarked) [Example 11b, 3-Benzyl-5,7-bis[1-(1H-tetrazol-5-yl)ethoxy]4-methyl-2 H-1-benzopyran-2-one], the “The stimulation (%) of Ca^2+ uptake, A (ventricular myocardium vesicles)” value in the assay with phospholamban (100 μM compound) worked out at 28%.
In the case of `Cc1c(Cc2ccccc2)c(=O)n(Cc2ccccc2)c2cc(OCC(=O)O)cc(OCC(=O)O)c12` [Example 12, 5,7-Bis(carboxymethoxy)-1,3-dibenzyl-4-methyl-2(1H)-quinolinone], the Emax at 10 µM in the assay with guinea-pig heart is 22%. For the same compound, the “The stimulation (%) of Ca^2+ uptake, A (ventricular myocardium vesicles)” value with phospholamban (100 μM compound) was found to be 32%.
`Cc1c(Cc2ccccc2)c(=O)n(Cc2ccc(F)cc2)c2cc(OCc3nn[nH]n3)cc(OCc3nn[nH]n3)c12` [Example 13d, 3-Benzyl-5,7-Bis[(1H-tetrazol-5-yl)methoxy]-1-(4-fluorobenzyl)-4-methyl-2(1H)-quinolinone]: in the assay with guinea-pig heart, the Emax at 30 µM was determined as 48% and the EC50 was found to be 10 µM. Moreover, the “The stimulation (%) of Ca^2+ uptake, A (ventricular myocardium vesicles)” value with phospholamban (50 μM compound) is 23%.
Consider `Cc1c(Cc2ccc(Cl)cc2)c(=O)oc2cc(OCc3nn[nH]n3)cc(OCc3nn[nH]n3)c12` [Example 14c, 5,7-Bis[(1H-tetrazol-5-yl)methoxy]-3-(4-chlorobenzyl)-4-methyl-2H-1-benzopyran-2-one], for which, in the assay with guinea-pig heart, the Emax at 10 µM is 25%. Further, the “The stimulation (%) of Ca^2+ uptake, A (ventricular myocardium vesicles)” value with phospholamban (10 μM compound) is 18%.
`Cc1c(Cc2ccc([N+](=O)[O-])cc2)c(=O)oc2cc(OCc3nn[nH]n3)cc(OCc3nn[nH]n3)c12` [Example 15c, 5,7-Bis[(1H-tetrazol-5-yl)methoxy]-3-(4-nitrobenzyl)-4-methyl-2H-1-benzopyran-2-one]: in the assay on guinea-pig heart, the Emax at 10 µM was found to be 37% and the EC50 was determined as 3 µM.
Take `Cc1c(C2CCCC2)c(=O)oc2cc(OCc3nn[nH]n3)cc(OCc3nn[nH]n3)c12` [Example 16c, 5,7-Bis[(1H-tetrazol-5-yl)methoxy]-3-cyclopentyl-4-methyl-2H-1-benzopyran-2-one]: in the assay with guinea-pig heart, the Emax at 30 µM amounted to 57% and the response was half-maximal at 10 µM (EC50).
With `Cc1cc(=O)n(Cc2ccccc2)c2cc(OCc3nnn[nH]3)cc(OCc3nnn[nH]3)c12` [Example 18e, 1-Benzyl-5,7-bis-[(1H-tetrazol-5-yl)methoxy]-4-methyl-2(1H)-quinolinone], in the assay with guinea-pig heart, the Emax at 30 µM worked out at 35% and the response was half-maximal at 10 µM (EC50). The “The stimulation (%) of Ca^2+ uptake, A (ventricular myocardium vesicles)” value in the assay with phospholamban (100 μM compound) is listed as 13%.
With `Cc1c(Cc2ccccc2F)c(=O)n(Cc2ccccc2)c2cc(OCc3nnn[nH]3)cc(OCc3nnn[nH]3)c12` [Example 19e], in the assay on guinea-pig heart, the Emax at 30 µM came to 39% and the midpoint of the response, the EC50, lay at 6 µM.
As to `Cc1c(Cc2ccccc2)c(=O)n(Cc2ccccc2)c2cc(OCC(N)=O)cc(OCC(N)=O)c12` [Example 21, 5,7-Bis(aminocarbonylmethoxy)-1,3-dibenzyl-4-methyl-2(1H)-quinolinone], the “The stimulation (%) of Ca^2+ uptake, A (ventricular myocardium vesicles)” value in the assay with phospholamban (100 μM compound) was determined as 11%.
For `Cc1c(Cc2ccccc2)c(=O)n(Cc2ccccc2)c2cc(OCC(=O)NO)cc(OCC(=O)NO)c12` [Example 23, 5,7-Bis(hydroxyaminocarbonylmethoxy)-1,3-dibenzyl-4-methyl-2(1H)-quinolinone], the “The stimulation (%) of Ca^2+ uptake, A (ventricular myocardium vesicles)” value in the assay on phospholamban (5 μM compound) turned out to be 20%.
On to “cP226: cyclic peptide of formula (pI) wherein X is Tyr; linear CYWELEWLPCA cyclized by intramolecular disulphide bridge; PLB deactivator (disulfide 1-10 (inferred))”, for which the “binding to PLB” value in the assay with PLB is “binds to the ligand binding site of phospholamban”.
